From patent US10206394B2, “Herbicidal compounds” (Syngenta Participations AG, priority 2014, dated 2019)
Read-outs that look alike come from different tables or passages of the source.

Columns and labels:
Assay in all cases: Glasshouse assay for herbicidal activity (pre- and post-emergence), percentage phytotoxicity
Type in all cases: in vivo
Lolium perenne (LOLPE) = conditions: Lolium perenne
In short: (§1)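 Pot-grown plants treated one day after sowing (pre-emergence) or at about 12 days (post-emergence); glasshouse at 24/18° C (warm) or 20/16° C (cool species) day/night, 16 h light, 65% humidity. Visual % phytotoxicity (0 = none, 100 = total damage) scored at 15 DAA post or 20 DAA pre.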

[1] = tested on: Alopecurus myosuroides (ALOMY); conditions: Alopecurus myosuroides
In short: as §1

[2] = tested on: Echinochloa crus-galli (ECHCG); conditions: Echinochloa crus-galli
In short: as §1

Avena fatua (AVEFA) = conditions: Avena fatua
In short: as §1

[3] = post-emergence, 360 h, 250 g/ha, post-emergence, 15 DAA, visual assessment (100%=total damage, 0%=no damage), read-out: Post-emergence herbicidal activity (percentage phytotoxicity) LOLPE POST
[4] = pre-emergence, 480 h, 250 g/ha, pre-emergence, 20 DAA, visual assessment (100%=total damage, 0%=no damage), read-out: Pre-emergence herbicidal activity (percentage phytotoxicity) LOLPE PRE
[5] = post-emergence, 360 h, 250 g/ha, post-emergence, 15 DAA, visual assessment (100%=total damage, 0%=no damage), read-out: Post-emergence herbicidal activity (percentage phytotoxicity) ALOMY POST
[6] = pre-emergence, 480 h, 250 g/ha, pre-emergence, 20 DAA, visual assessment (100%=total damage, 0%=no damage), read-out: Pre-emergence herbicidal activity (percentage phytotoxicity) ALOMY PRE
[7] = post-emergence, 360 h, 250 g/ha, post-emergence, 15 DAA, visual assessment (100%=total damage, 0%=no damage), read-out: Post-emergence herbicidal activity (percentage phytotoxicity) ECHCG POST
[8] = pre-emergence, 480 h, 250 g/ha, pre-emergence, 20 DAA, visual assessment (100%=total damage, 0%=no damage), read-out: Pre-emergence herbicidal activity (percentage phytotoxicity) ECHCG PRE
[9] = post-emergence, 360 h, 250 g/ha, post-emergence, 15 DAA, visual assessment (100%=total damage, 0%=no damage), read-out: Post-emergence herbicidal activity (percentage phytotoxicity) AVEFA POST
[10] = pre-emergence, 480 h, 250 g/ha, pre-emergence, 20 DAA, visual assessment (100%=total damage, 0%=no damage), read-out: Pre-emergence herbicidal activity (percentage phytotoxicity) AVEFA PRE
[11] = post-emergence, 360 h, POST-emergence, rate 250 g/ha, visual score 15 DAA (100%=total damage, 0%=no damage), read-out: Post-emergence herbicidal activity (percentage phytotoxicity) LOLPE POST
[12] = pre-emergence, 480 h, PRE-emergence, rate 250 g/ha, visual score 20 DAA (100%=total damage, 0%=no damage), read-out: Pre-emergence herbicidal activity (percentage phytotoxicity) LOLPE PRE
[13] = post-emergence, 360 h, POST-emergence, rate 250 g/ha, visual score 15 DAA (100%=total damage, 0%=no damage), read-out: Post-emergence herbicidal activity (percentage phytotoxicity) ALOMY POST
[14] = pre-emergence, 480 h, PRE-emergence, rate 250 g/ha, visual score 20 DAA (100%=total damage, 0%=no damage), read-out: Pre-emergence herbicidal activity (percentage phytotoxicity) ALOMY PRE
[15] = post-emergence, 360 h, POST-emergence, rate 250 g/ha, visual score 15 DAA (100%=total damage, 0%=no damage), read-out: Post-emergence herbicidal activity (percentage phytotoxicity) ECHCG POST
[16] = pre-emergence, 480 h, PRE-emergence, rate 250 g/ha, visual score 20 DAA (100%=total damage, 0%=no damage), read-out: Pre-emergence herbicidal activity (percentage phytotoxicity) ECHCG PRE
[17] = post-emergence, 360 h, POST-emergence, rate 250 g/ha, visual score 15 DAA (100%=total damage, 0%=no damage), read-out: Post-emergence herbicidal activity (percentage phytotoxicity) AVEFA POST
[18] = pre-emergence, 480 h, PRE-emergence, rate 250 g/ha, visual score 20 DAA (100%=total damage, 0%=no damage), read-out: Pre-emergence herbicidal activity (percentage phytotoxicity) AVEFA PRE

In the case of `Cc1cc(-c2ncc(F)cc2F)cc(C)c1C1C(=O)CC(CC(N)=O)C1=O` (stereo not drawn) [Compound B54], the pest or weed control at 250 g/ha (Lolium perenne (LOLPE); [3]) is reported as 100%, the pest or weed control at 250 g/ha (Lolium perenne (LOLPE); [4]) is reported as 80% and the pest or weed control at 250 g/ha [1, 5] is reported as 100%. It also gave a pest or weed control at 250 g/ha [1, 6] of 80%, a pest or weed control at 250 g/ha [2, 7] of 100% and a pest or weed control at 250 g/ha [2, 8] of 80%. For the same compound, the pest or weed control at 250 g/ha (Avena fatua (AVEFA); [9]) was 100% and the pest or weed control at 250 g/ha (Avena fatua (AVEFA); [10]) was 80%.

`Cc1cc(C)c(C2C(=O)CC(CC(=O)NC3(C)CCCC3)C2=O)c(C)c1` (stereo not drawn) [Compound B41] was tested, and the pest or weed control at 250 g/ha (Lolium perenne (LOLPE); [3]) was 60%, the pest or weed control at 250 g/ha (Lolium perenne (LOLPE); [4]) was 70% and the pest or weed control at 250 g/ha [1, 5] was 80%. The pest or weed control at 250 g/ha [1, 6] was 70%, the pest or weed control at 250 g/ha [2, 7] was 60% and the pest or weed control at 250 g/ha [2, 8] was 60%. For the same compound, the pest or weed control at 250 g/ha (Avena fatua (AVEFA); [9]) was 70% and the pest or weed control at 250 g/ha (Avena fatua (AVEFA); [10]) was 30%.

Compound `C#Cc1ccc(CNC(=O)CC2CC(=O)C(c3c(C)cc(C)cc3C)C2=O)cc1` (stereo not drawn) [Compound B34] has a pest or weed control at 250 g/ha (Lolium perenne (LOLPE); [3]) of 80%, a pest or weed control at 250 g/ha (Lolium perenne (LOLPE); [4]) of 90% and a pest or weed control at 250 g/ha [1, 5] of 60%. The pest or weed control at 250 g/ha [1, 6] was 70%, the pest or weed control at 250 g/ha [2, 7] was 100% and the pest or weed control at 250 g/ha [2, 8] was 100%. The pest or weed control at 250 g/ha (Avena fatua (AVEFA); [9]) was 90% and the pest or weed control at 250 g/ha (Avena fatua (AVEFA); [10]) was 80%.

In the case of `C=CCCNC(=O)CC1CC(=O)C(c2c(C)cc(-n3cc(Cl)cn3)cc2C)C1=O` (stereo not drawn) [Compound A76], the pest or weed control at 250 g/ha (Lolium perenne (LOLPE); post-emergence, 360 h, Rate 250 g/ha, post-emergence, assessed visually 15 DAA, 100%=total damage, 0%=no damage, read-out: Post-emergence herbicidal activity (percentage phytotoxicity) LOLPE POST) is reported as 80%, the pest or weed control at 250 g/ha (Lolium perenne (LOLPE); pre-emergence, 480 h, Rate 250 g/ha, pre-emergence, assessed visually 20 DAA, 100%=total damage, 0%=no damage, read-out: Pre-emergence herbicidal activity (percentage phytotoxicity) LOLPE PRE) is reported as 90% and the pest or weed control at 250 g/ha ([1]; post-emergence, 360 h, Rate 250 g/ha, post-emergence, assessed visually 15 DAA, 100%=total damage, 0%=no damage, read-out: Post-emergence herbicidal activity (percentage phytotoxicity) ALOMY POST) is reported as 100%. It also gave a pest or weed control at 250 g/ha ([1]; pre-emergence, 480 h, Rate 250 g/ha, pre-emergence, assessed visually 20 DAA, 100%=total damage, 0%=no damage, read-out: Pre-emergence herbicidal activity (percentage phytotoxicity) ALOMY PRE) of 90%, a pest or weed control at 250 g/ha ([2]; post-emergence, 360 h, Rate 250 g/ha, post-emergence, assessed visually 15 DAA, 100%=total damage, 0%=no damage, read-out: Post-emergence herbicidal activity (percentage phytotoxicity) ECHCG POST) of 100% and a pest or weed control at 250 g/ha ([2]; pre-emergence, 480 h, Rate 250 g/ha, pre-emergence, assessed visually 20 DAA, 100%=total damage, 0%=no damage, read-out: Pre-emergence herbicidal activity (percentage phytotoxicity) ECHCG PRE) of 100%. For the same compound, the pest or weed control at 250 g/ha (Avena fatua (AVEFA); post-emergence, 360 h, Rate 250 g/ha, post-emergence, assessed visually 15 DAA, 100%=total damage, 0%=no damage, read-out: Post-emergence herbicidal activity (percentage phytotoxicity) AVEFA POST) was 90% and the pest or weed control at 250 g/ha (Avena fatua (AVEFA); pre-emergence, 480 h, Rate 250 g/ha, pre-emergence, assessed visually 20 DAA, 100%=total damage, 0%=no damage, read-out: Pre-emergence herbicidal activity (percentage phytotoxicity) AVEFA PRE) was 90%.

`CCc1cc(OCC(F)(F)F)cc(C)c1C1C(=O)CC(CC(=O)NCc2cccc(F)c2)C1=O` (stereo not drawn) [Compound B214] showed a pest or weed control at 250 g/ha (Lolium perenne (LOLPE); [11]) of 100%, a pest or weed control at 250 g/ha (Lolium perenne (LOLPE); [12]) of 90% and a pest or weed control at 250 g/ha [1, 13] of 100%. It also gave a pest or weed control at 250 g/ha [1, 14] of 100%, a pest or weed control at 250 g/ha [2, 15] of 100% and a pest or weed control at 250 g/ha [2, 16] of 100%. It also gave a pest or weed control at 250 g/ha (Avena fatua (AVEFA); [17]) of 100% and a pest or weed control at 250 g/ha (Avena fatua (AVEFA); [18]) of 90%.

Work on `CCCNC(=O)CC1CC(=O)C(c2c(C)cc(-n3cc(Cl)cn3)cc2C)C1=O` (stereo not drawn) [Compound B314, 2-[3-[4-(4-chloropyrazol-1-yl)-2,6-dimethyl-phenyl]-2,4-dioxo-cyclopentyl]-N-propyl-acetamide] yielded a pest or weed control at 250 g/ha (Lolium perenne (LOLPE); [11]) of 90%, a pest or weed control at 250 g/ha (Lolium perenne (LOLPE); [12]) of 90% and a pest or weed control at 250 g/ha [1, 13] of 100%. The pest or weed control at 250 g/ha [1, 14] was 100%, the pest or weed control at 250 g/ha [2, 15] was 80% and the pest or weed control at 250 g/ha [2, 16] was 100%. It also gave a pest or weed control at 250 g/ha (Avena fatua (AVEFA); [17]) of 100% and a pest or weed control at 250 g/ha (Avena fatua (AVEFA); [18]) of 90%.
